Data taken from US20070299092A1 (Wyeth, priority 2004, published 2007).
“And” between values parts separate entries of the source, which are not always exact repeats. Equal values may be shown once. Read-outs that look alike come from different tables or passages of the source.

Tests used:
[1] = system: Human umbilical vein endothelial cells (HUVEC); test: HUVEC proliferation assay, VEGF-dependent growth ([3H]-thymidine incorporation); assay type: cell-based; settings: for inhibition at 10 µM / inhibition at 0.1 µM / inhibition at 1 µM: Homo sapiens, HUVEC; for inhibition at 0.1 µM: conc. 100 nM
Procedure: Cells were plated into 96-well dishes (4000 cells per well) and allowed to attach overnight. HUVEC were rinsed one time with 100 μl of EBMc-V (EBM supplemented with all above components except serum or VEGF), then 50 ul of EBMc-V was added to cells. Compounds were prepared at 200× stocks in DMSO, diluted into EBMc-V media as 4× stocks, then 50 ul added to appropriate wells. Finally, 100 μl of 2×VEGF (100 ng/ml prepared in EBMc-V; final 50 ng/ml VEGF) was added to all VEGF-treated wells. EBMc-V (no VEGF) was added to negative control wells. Parallel compound-treated plates were prepared except that 100 μl of EGM2 media containing 2% serum but lacking VEGF (EGMc-V) was added. Cells were incubated for 4-5 days at 37° C.
DNA synthesis was assessed by thymidine incorporation. Cells were incubated for 5 hours in 1 μCi of [^3H]-thymidine (PerkinElmer) by addition of 10 ul of 0.1 μCi/ul thymidine prepared in PBS to each well. After incubation, media was aspirated and the cells trypsinized and collected onto a mat using a vacuum-based Micro Cell Harvester (Skatron). [^3H]-thymidine was counted in a liquid scintillation counter. Compounds evaluated for ability to inhibit VEGF-dependent growth of human umbilical vein endothelial cells (HUVEC).

KDR = KDR (Homo sapiens, UniProt P35968); test: cell-based; settings: for inhibition at 1 µM: read-out: % Inhibition of KDR kinase autophosphorylation in KDR15 cells, compound conc. 1000 nM
[2] = target: T1, human KDR (VEGF-receptor-2) (Homo sapiens, UniProt P35968); test: KDR kinase enzyme assay (DELFIA, KDR-IC-Flag, poly(Glu4-Tyr) peptide); assay type: biochemical; settings: for inhibition at 0.1 µM: Concentration 100 nM; for inhibition at 0.1 µM / inhibition at 1 µM: read-out: % Inhibition; for inhibition at 1 µM: Concentration 1000 nM
T1 construct: beginning at Met-806; (5′-ATG GAT CCA GAT GM CTC CCA TTG) and ending at Val-1356; made in house
T1 sequence (P35968 806-1356): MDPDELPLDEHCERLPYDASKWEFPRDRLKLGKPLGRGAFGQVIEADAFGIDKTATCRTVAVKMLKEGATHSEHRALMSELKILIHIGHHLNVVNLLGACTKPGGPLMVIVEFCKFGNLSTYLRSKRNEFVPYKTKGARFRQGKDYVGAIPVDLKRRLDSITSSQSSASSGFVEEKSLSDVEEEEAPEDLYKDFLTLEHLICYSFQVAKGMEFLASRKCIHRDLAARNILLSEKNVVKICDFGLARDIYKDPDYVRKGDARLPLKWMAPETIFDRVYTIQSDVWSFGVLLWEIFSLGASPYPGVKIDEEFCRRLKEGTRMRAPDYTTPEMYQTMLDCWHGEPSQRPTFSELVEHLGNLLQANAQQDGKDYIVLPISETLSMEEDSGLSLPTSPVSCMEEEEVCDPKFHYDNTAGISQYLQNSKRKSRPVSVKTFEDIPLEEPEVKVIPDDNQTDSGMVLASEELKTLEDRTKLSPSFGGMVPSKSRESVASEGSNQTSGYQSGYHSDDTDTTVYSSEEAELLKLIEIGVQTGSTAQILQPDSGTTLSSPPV

Chain of KDR (P35968 20-1356): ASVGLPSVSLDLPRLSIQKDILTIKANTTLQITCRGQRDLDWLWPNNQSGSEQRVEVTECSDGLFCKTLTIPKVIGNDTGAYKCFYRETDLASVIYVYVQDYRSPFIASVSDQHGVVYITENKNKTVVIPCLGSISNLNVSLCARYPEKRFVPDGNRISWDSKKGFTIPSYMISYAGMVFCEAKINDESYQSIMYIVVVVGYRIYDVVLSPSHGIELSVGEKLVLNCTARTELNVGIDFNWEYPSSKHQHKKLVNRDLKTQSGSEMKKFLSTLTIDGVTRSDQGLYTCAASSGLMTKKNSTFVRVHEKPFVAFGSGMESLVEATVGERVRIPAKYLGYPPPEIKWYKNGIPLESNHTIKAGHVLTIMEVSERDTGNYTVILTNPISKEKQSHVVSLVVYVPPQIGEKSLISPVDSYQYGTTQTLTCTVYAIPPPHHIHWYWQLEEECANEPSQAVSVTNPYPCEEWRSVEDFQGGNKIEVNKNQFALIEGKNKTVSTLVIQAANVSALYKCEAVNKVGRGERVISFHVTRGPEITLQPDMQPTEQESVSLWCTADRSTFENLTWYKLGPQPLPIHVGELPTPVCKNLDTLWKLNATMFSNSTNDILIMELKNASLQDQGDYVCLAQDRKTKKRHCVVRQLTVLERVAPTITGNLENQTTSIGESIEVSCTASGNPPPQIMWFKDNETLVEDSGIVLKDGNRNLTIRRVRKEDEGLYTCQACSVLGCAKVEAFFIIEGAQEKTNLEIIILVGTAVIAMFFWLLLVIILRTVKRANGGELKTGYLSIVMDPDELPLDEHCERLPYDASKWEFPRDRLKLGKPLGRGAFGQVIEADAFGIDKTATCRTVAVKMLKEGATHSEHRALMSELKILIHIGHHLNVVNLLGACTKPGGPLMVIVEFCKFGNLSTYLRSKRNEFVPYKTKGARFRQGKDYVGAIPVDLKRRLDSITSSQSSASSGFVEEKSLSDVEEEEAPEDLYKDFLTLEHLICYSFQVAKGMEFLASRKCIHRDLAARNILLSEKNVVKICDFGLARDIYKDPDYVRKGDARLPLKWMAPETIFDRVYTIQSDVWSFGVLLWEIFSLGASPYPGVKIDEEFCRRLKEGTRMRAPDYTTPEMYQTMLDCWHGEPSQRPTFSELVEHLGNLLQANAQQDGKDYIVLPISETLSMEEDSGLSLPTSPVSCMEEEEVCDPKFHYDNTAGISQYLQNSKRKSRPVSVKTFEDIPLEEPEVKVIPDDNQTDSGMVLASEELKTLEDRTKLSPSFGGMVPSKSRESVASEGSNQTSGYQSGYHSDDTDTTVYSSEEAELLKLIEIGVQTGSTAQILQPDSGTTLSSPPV

| Compound | inhibition at 0.1 µM ([2]; ATP conc. 10 μM) | inhibition at 1 µM ([2]; ATP conc. 10 μM) | inhibition at 1 µM (KDR) | other results |
| --- | --- | --- | --- | --- |
| CCC1=CC(=O)C(Nc2ncnc3cc(OC)c(OC)cc23)=CC1=O [Example 8, 2-[(6,7-dimethoxy-4-quinazolinyl)amino]-5-ethylbenzo-1,4-quinone] | 51% | 82% | – | inhibition at 10 µM ([1]; conc. 10000 nM): 87%; % Inhibition of VEGF-dependent growth of HUVEC ([1]; conc. 1000 nM): 30% and 51% and 37%; % Inhibition of VEGF-dependent growth of HUVEC ([1]; conc. 10000 nM): 98% and 89%; IC50 (KDR; IC50 (nM), inhibition of KDR kinase autophosphorylation in KDR15 cells, KDR15 cells, VEGF 50 ng/ml, phospho-KDR-Y996 immunoblot): 172 nM; inhibition at 0.5 µM (KDR; read-out: % Inhibition of KDR kinase autophosphorylation in KDR15 cells, compound conc. 500 nM): 25%; IC50 ([2]; ATP conc. 10 μM): 175 nM and 177 nM; IC50 ([2]; ATP conc. 100 μM): 200 nM; IC50 ([2]; ATP conc. 1000 μM): 239 nM; inhibition at 1 µM ([2]; ATP conc. 1000 μM): 80% |
| CCOC(=O)Cc1ccc(OC2=CC(=O)C(Nc3ncnc4cc(OCCOC)c(OC)cc34)=CC2=O)cc1 [Example 37, ethyl {4-[(4-{[6-methoxy-7-(2-methoxyethoxy)quinazolin-4-yl]amino}-3,6-dioxocyclohexa-1,4-dien-1-yl)oxy]phenyl}acetate] | 89% | 93% | 11% | – |
| COCCOc1cc2ncnc(NC3=CC(=O)C(Oc4ccc(C(=O)c5ccccc5)cc4)=CC3=O)c2cc1OC [Example 39, 2-(4-benzoylphenoxy)-5-{[6-methoxy-7-(2-methoxyethoxy)quinazolin-4-yl]amino}benzo-1,4-quinone] | 91% | 94% | 140% | inhibition at 0.1 µM [1]: 18%; inhibition at 1 µM ([1]; conc. 1000 nM): 58%; inhibition at 10 µM ([1]; conc. 10000 nM): 99%; IC50 ([2]; ATP conc. 10 μM): 3.5 nM |
| COCCOc1cc2ncnc(NC3=CC(=O)C(Oc4ccc(CCC(=O)OC)cc4)=CC3=O)c2cc1OC [Example 40, methyl 3-{4-[(4-{[6-methoxy-7-(2-methoxyethoxy)quinazolin-4-yl]amino}-3,6-dioxocyclohexa-1,4-dien-1-yl)oxy]phenyl}propanoate] | 92% | 94% | 110% | – |
| COCCOc1cc2ncnc(NC3=CC(=O)C(Oc4ccc5c(c4)[nH]c4ccccc45)=CC3=O)c2cc1OC [Example 41, 2-(9H-carbazol-2-yloxy)-5-{[6-methoxy-7-(2-methoxyethoxy)quinazolin-4-yl]amino}benzo-1,4-quinone] | 92% | 92% | 120% | inhibition at 0.1 µM [1]: -5%; inhibition at 1 µM ([1]; conc. 1000 nM): 42%; inhibition at 10 µM ([1]; conc. 10000 nM): 98%; IC50 ([2]; ATP conc. 10 μM): 2 nM |
| COCCOc1cc2ncnc(NC3=CC(=O)C(Oc4ccc(C(=O)OC)cc4)=CC3=O)c2cc1OC [Example 42, methyl 4-[(4-{[6-methoxy-7-(2-methoxyethoxy)quinazolin-4-yl]amino}-3,6-dioxocyclohexa-1,4-dien-1-yl)oxy]benzoate] | 92% | 94% | 64% | – |
| CCOC(=O)c1c(C)[nH]c2ccc(OC3=CC(=O)C(Nc4ncnc5cc(OCCOC)c(OC)cc45)=CC3=O)cc12 [Example 45, ethyl 5-[(4-{[6-methoxy-7-(2-methoxyethoxy)quinazolin-4-yl]amino}-3,6-dioxocyclohexa-1,4-dien-1-yl)oxy]-2-methyl-1H-indole-3-carboxylate] | 92% | 93% | 99% | IC50 ([2]; ATP conc. 10 μM): 2.6 nM |
| COCCOc1cc2ncnc(NC3=CC(=O)C(Oc4ccc(Br)cc4)=CC3=O)c2cc1OC [Example 46, 2-(4-bromophenoxy)-5-{[6-methoxy-7-(2-methoxyethoxy)quinazolin-4-yl]amino}benzo-1,4-quinone] | 93% | 94% | 79% | – |
| COCCOc1cc2ncnc(NC3=CC(=O)C(Oc4ccc(C)cc4-c4ccno4)=CC3=O)c2cc1OC [Example 47, 2-(2-isoxazol-5-yl-4-methylphenoxy)-5-{[6-methoxy-7-(2-methoxyethoxy)quinazolin-4-yl]amino}benzo-1,4-quinone] | 86% | 94% | 66% | – |
| COCCOc1cc2ncnc(NC3=CC(=O)C(Oc4ccc(C(=O)OCc5ccccc5)cc4)=CC3=O)c2cc1OC [Example 48, benzyl 4-[(4-{[6-methoxy-7-(2-methoxyethoxy)quinazolin-4-yl]amino}-3,6-dioxocyclohexa-1,4-dien-1-yl)oxy]benzoate] | 86% | 93% | 74% | – |
| COCCOc1cc2ncnc(NC3=CC(=O)C(Oc4ccc(C(=O)Cc5ccccc5)cc4)=CC3=O)c2cc1OC [Example 49, 2-{[6-methoxy-7-(2-methoxyethoxy)quinazolin-4-yl]amino}-5-[4-(phenylacetyl)phenoxy]benzo-1,4-quinone] | 88% | 93% | 90% | IC50 ([2]; ATP conc. 10 μM): 149 nM |
| COCCOc1cc2ncnc(NC3=CC(=O)C(Oc4ccc5cc(Br)ccc5c4)=CC3=O)c2cc1OC [Example 51, 2-[(6-bromo-2-naphthyl)oxy]-5-{[6-methoxy-7-(2-methoxyethoxy)quinazolin-4-yl]amino}benzo-1,4-quinone] | 91% | 93% | 105% | – |
| COCCOc1cc2ncnc(NC3=CC(=O)C(Oc4ccccc4OCc4ccccc4)=CC3=O)c2cc1OC [Example 52, 2-[2-(benzyloxy)phenoxy]-5-{[6-methoxy-7-(2-methoxyethoxy)quinazolin-4-yl]amino}benzo-1,4-quinone] | 91% | 95% | 94% | – |
| COCCOc1cc2ncnc(NC3=CC(=O)C(Oc4ccc5c(c4)Cc4ccccc4-5)=CC3=O)c2cc1OC [Example 53, 2-(9H-fluoren-2-yloxy)-5-{[6-methoxy-7-(2-methoxyethoxy)quinazolin-4-yl]amino}benzo-1,4-quinone] | 90% | 94% | 79% | – |
| COCCOc1cc2ncnc(NC3=CC(=O)C(Oc4ccc(CCN)cc4)=CC3=O)c2cc1OC [Example 54, 2-[4-(2-aminoethyl)phenoxy]-5-{[6-methoxy-7-(2-methoxyethoxy)quinazolin-4-yl]amino}benzo-1,4-quinone] | -2% | 10% | -5% | – |
| COCCOc1cc2ncnc(NC3=CC(=O)C(N(C)c4cccc(F)c4)=CC3=O)c2cc1OC [Example 74, 2-[(3-fluorophenyl)(methyl)amino]-5-{[6-methoxy-7-(2-methoxyethoxy)quinazolin-4-yl]amino}benzo-1,4-quinone] | 27% | 89% | 4% | inhibition at 1 µM ([2]; ATP conc. 1000 μM): 84% |
| COCCOc1cc2ncnc(NC3=CC(=O)C(N(C)Cc4ccccc4)=CC3=O)c2cc1OC [Example 82, 2-[benzyl(methyl)amino]-5-{[6-methoxy-7-(2-methoxyethoxy)quinazolin-4-yl]amino}benzo-1,4-quinone] | 15% | 30% | 12% | inhibition at 1 µM ([2]; ATP conc. 1000 μM): 45% |
